Assay results reported in patent US8871735B2, “Methods and compositions for providing cardiac protection” (University of Medicine and Dentistry of New Jersey, priority 2008, dated 2014).
Entries after “also recorded” stand apart in the source; their conditions may differ. Read-outs that look alike come from different tables or passages of the source.

How the values were obtained:
AC5 [1] = biological target: T1, AC5 (Mus musculus, UniProt P84309); experiment: Acute ISO, milrinone or carbachol challenge in mice chronically infused with Ara-Ade; type: in vivo
T1 sequence (P84309 whole entry, the tested form may be a part): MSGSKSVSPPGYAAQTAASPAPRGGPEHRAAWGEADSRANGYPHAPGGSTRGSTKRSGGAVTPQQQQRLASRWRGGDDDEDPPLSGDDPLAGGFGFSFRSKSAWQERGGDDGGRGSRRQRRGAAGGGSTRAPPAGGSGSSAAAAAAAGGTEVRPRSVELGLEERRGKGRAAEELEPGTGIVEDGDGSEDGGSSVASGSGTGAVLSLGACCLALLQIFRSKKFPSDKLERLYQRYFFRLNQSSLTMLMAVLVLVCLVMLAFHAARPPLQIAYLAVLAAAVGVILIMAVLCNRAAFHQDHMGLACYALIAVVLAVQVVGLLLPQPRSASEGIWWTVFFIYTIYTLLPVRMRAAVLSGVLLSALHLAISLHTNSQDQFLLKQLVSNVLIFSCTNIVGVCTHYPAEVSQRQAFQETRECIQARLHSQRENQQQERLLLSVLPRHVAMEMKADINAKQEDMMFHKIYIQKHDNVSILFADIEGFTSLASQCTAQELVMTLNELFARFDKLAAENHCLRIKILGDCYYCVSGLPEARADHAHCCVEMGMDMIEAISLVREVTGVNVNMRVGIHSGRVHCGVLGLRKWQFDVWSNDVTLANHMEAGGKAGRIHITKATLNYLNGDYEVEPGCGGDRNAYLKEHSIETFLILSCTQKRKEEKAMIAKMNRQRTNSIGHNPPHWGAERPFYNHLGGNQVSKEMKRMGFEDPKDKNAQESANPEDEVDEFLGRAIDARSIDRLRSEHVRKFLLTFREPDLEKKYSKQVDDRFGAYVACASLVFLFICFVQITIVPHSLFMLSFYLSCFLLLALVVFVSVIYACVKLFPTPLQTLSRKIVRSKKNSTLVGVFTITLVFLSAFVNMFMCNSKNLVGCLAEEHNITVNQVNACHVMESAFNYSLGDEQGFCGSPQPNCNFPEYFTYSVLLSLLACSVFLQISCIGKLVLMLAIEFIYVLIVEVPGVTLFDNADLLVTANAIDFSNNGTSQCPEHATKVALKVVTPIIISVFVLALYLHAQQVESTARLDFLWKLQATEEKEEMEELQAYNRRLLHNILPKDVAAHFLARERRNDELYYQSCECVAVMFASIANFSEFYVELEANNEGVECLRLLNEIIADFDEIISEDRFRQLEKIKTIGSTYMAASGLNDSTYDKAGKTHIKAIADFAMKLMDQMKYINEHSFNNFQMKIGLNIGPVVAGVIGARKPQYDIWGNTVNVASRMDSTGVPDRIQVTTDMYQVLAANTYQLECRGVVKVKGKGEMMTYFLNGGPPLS

AC5 [2] = experiment: as above; type: in vivo, mouse; conditions: 0.05 μg/kg IV ISO, AC5Tg
AC6 = experiment: Forskolin-stimulated cAMP production in heart membrane preparations from AC6Tg; type: biochemical, mouse; conditions: forskolin 50 μM
[3] = tested on: C57BL/6 mice, CAO 30 min / CAR; experiment: Mouse ischemia and reperfusion model; type: in vivo
Experimental: Mice were divided into three different groups. Group I was administered AC5 inhibitor chronically for three weeks prior to CAO for 30 minutes followed by CAR for 24 hours. Group II was administered the AC5 inhibitor by i.v. infusion for 5 minutes immediately prior to CAO for 30 minutes followed by CAR for 24 hours. Group III was administered the AC5 inhibitor by i.v. infusion for 5 minutes immediately following CAO for 30 minutes and during CAR for 24 hours. Vehicle controls were included for all three treatment groups.
3-4 month old male C57BL/6 mice purchased from Jackson Laboratory were anesthetized by an injection of 2% 2,2,2-tribromomethanol (0.66 mg/g i.p.; Aldrich Chemical, St. Louis, Mo.). The mice were then orally intubated and mechanically ventilated. The heart was accessed via a thoracotomy at the fourth intercostals space and 7-0 silk suture passed under the left anterior descending coronary artery (LAD) at the point where it emerged from under the left atrial flap. Myocardial ischemia was achieved by occluding the LAD against a 22-gauge J-shaped stainless steel probe and verified by visually noting the regional akinesis and blanching of the left ventrical. The chest was closed in layers, with the long end of the probe remaining outside the chest wall, allowing the animal to be removed from the ventilator. After 30 min. of ischemia, reperfusion was initiated by carefully pulling the probe out form the ligature and then removing it from the chest cavity. Following the surgical procedure, the mouse was allowed to recover on a warmed surface, with supplemental oxygen delivered from a nose cone. I/R were verified by three lead electrocardiograms, which were obtained preoperatively, at the end of the ischemic interval and immediately after the initiation of reperfusion. Mice fully recovered from the surgical procedure were returned to standard animal housing conditions. The mice were under either 24 hrs of reperfusion followed by sacrifice and dual staining of the heart with TTC and Alcian Blue or kept for 4 weeks to study the heart failure progression. For the long term study post ischemia and reperfusion, the animals underwent echocardiography recording at 4 days, 2 weeks and 4 weeks after reperfusion.

[4] = tested on: C57Bl/6 mice motor function; experiment: Rotarod performance test and pole test; type: in vivo, mouse; conditions: mouse
Experimental: In C57Bl/6 mice, Ara-Ade was chronically infused with an osmotic mini-pump at the indicated doses for 5 days. a) Each mouse was placed on a rod subjected to evaluate Rotarod performance. Mice were left for 1 min on the rod for habituation. The rod rotated gradually increasing from 4 to 40 rpm over the course of 5 min, and the time that mice could stay without failing was recorded. Five trials were conducted for each individual 10-25 min apart. As a positive control, 1-methyl 4-phenyl 1,2,3,6-tetrahydropyridine (MPTP) was intraperitoneally injected for the indicated dose for 5 days. *, p<0.01 relative to vehicle. #, p<0.05 relative to vehicle. n=6-7. b) To evaluate bradykinesia, a pole test was performed. Mice were placed head upward on the top of a rough surfaced pole that was wrapped with gauze to prevent slipping. The time until the mouse turned completely downward (open bars, TTURN) and the time until it climbed down to the floor (closed bars, TLA) were measured.
Four days after the implantation, Rotarod performance test and pole test were examined as previously described. For MPTP injection (1-methyl 4-phenyl 1,2,3,6-tetrahydropyridine), mice were injected intraperitoneally (i.p.) with 0.1 mL of PBS or MPTP dissolved in PBS at 24-hour intervals for 5 days. The daily dose of MPTP was 30 mg/kg. […]

type 5 AC = type 5 AC (Homo sapiens, UniProt O95622); experiment: Double-reciprocal plots of type 5 AC catalytic activity against ATP
Sequence of type 5 AC (O95622 whole entry): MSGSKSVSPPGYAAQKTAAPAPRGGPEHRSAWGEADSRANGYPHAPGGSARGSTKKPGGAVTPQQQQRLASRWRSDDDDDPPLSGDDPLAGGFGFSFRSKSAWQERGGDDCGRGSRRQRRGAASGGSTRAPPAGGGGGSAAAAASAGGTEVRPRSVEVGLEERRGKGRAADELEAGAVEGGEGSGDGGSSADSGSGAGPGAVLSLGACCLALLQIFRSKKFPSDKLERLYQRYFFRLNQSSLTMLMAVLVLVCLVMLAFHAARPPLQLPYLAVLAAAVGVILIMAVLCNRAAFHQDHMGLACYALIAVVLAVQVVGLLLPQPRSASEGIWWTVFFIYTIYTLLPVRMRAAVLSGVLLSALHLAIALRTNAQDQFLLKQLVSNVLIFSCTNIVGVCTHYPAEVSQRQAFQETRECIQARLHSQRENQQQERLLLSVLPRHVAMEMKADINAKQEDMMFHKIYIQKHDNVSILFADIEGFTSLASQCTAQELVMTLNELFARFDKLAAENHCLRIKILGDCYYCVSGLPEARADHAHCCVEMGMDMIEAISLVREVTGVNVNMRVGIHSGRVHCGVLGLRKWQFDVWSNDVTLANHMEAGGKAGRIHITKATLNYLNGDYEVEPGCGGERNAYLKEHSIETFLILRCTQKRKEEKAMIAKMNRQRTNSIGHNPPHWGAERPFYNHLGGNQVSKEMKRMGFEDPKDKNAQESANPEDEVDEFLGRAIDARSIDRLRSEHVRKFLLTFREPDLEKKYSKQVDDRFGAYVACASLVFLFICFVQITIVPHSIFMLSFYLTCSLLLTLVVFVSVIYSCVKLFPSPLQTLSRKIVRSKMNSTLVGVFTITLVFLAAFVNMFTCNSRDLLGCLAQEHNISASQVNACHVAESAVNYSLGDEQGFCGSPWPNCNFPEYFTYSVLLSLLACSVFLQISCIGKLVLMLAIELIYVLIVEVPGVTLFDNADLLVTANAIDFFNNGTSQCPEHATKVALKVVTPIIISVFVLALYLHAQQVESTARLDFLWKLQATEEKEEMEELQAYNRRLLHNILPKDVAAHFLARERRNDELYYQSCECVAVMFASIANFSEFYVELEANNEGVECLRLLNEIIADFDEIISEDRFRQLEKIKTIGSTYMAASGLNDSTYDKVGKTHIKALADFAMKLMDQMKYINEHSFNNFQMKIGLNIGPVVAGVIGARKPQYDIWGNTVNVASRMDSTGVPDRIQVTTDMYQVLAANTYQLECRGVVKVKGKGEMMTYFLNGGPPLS
Experimental: (§2) Hearts and striatum were dissected from the mice and membrane preparations were made as previously described. This crude membrane preparation was used in the AC assay. AC activity was measured by a modification of the method of Salomon et al. as previously described. […] Double-reciprocal plots were examined as previously described.

[5] = administration of 15 mg/kg/day; read-out: plasma Cmax; cited from earlier work
[6] = cited from earlier work
[7] = tested on: Yorkshire pigs, CAO / CAR; experiment: Pig ischemia and reperfusion model; type: in vivo
Experimental: Yorkshire pigs were under anesthesia and instrumented in accordance with established procedures. After 4 days of recovery, the pigs were subjected to ischemia and reperfusion also in accordance with established procedures. At 3 hours of coronary artery reperfusion, the animals were sacrificed and the infarct size was measures with TTC staining.

H9C2 cells = experiment: cAMP accumulation in H9C2 cells; type: cell-based; conditions: 5 μM ISO, 3 minutes, 10 μM drug
Text: […] Fludarabine ((+)-2-Fluoro-9-(5-O-phosphono-β-D-arabinofuranosyl)-9H-purin-6-amine) and Cladribine (2-chloro-2′-deoxyadenosine) are anti-cancer drugs, Adefovir (Bis(2,2-dimethylpropanoyloxymethyl)[2-(6-amino-9H-purin-9-yl)ethoxymethyl]phosphonate) and Zidovudine are anti-HIV drugs. Zidovudine-TP is a metabolite of zidovudine which inhibits virus replication. TP; triphosphate. 3-Deazaadenosine, Formycin A (7-Amino-3-(β-D-ribofuranosyl)-1H-pyrazolo[4,3-d]pyrimidine), 2-Far (2-Fluoroadenosine), formycin A ((2S,3R,4S,5R)-2-(7-amino-2H-pyrazolo[5,4-e]pyramidin-3-yl-5-(hydroxymeth-yl)oxolane-3,4-diol), 2-FD (2-Fluoro-2′-deoxyadenosine) and 2′5′ ddAdo (2′5′-dideoxyadenosine) are experimental drugs.
(§1) Mice were anesthetized with 2.5% tribromoethanol (0.010 to 0.015 mL per gram of body weight) injected intraperitoneally, and echocardiography was performed with ultrasonography (ACUSON Sequoia C256, Siemens Medical Solutions, Malvern, Pa.). For acute injection of isoproterenol, forskolin and milrinon, a PE-10 catheter was inserted into the right jugular vein, and drugs were injected at the rate of 1 μl/s. cAMP accumulation assay in H9C2 cells, a cardiac myoblast cell line, was examined as previously described.

AC5 [8] = biological target: T1, AC5; experiment: Forskolin-stimulated cAMP production in heart membrane preparations from AC5Tg; conditions: forskolin 50 μM
Experimental: as §2

ERK/MEK/Bcl-2 pathway = experiment: Western blot of hearts after chronic ISO infusion; type: in vivo, mouse
Experimental: The activities of MEK1 and ERK1/2 signaling pathway were examined by measuring the phosphorylated and total forms.
Western blotting was conducted with commercially available antibodies, except for type 5 and type 6 AC. Western blotting for type 5 and 6 AC was performed as previously described. Protein expression was quantified by densitometry.

mice = experiment: Basal cardiac function (echocardiography) under chronic drug infusion alone; type: in vivo, mouse; conditions: chronic infusion of drug alone (3 days to 1 week)
Text: ISO with or without AC5 inhibitors were chronically infused with osmotic mini-pump implanted subcutaneously at indicated doses for 1 week in c57Bl/6 mice. Mice were then subjected to echocardiography (a) and the hearts were removed and subjected to pathological examinations such as myocardial apoptosis (b) and fibrosis (c). n=4-8.
In C57Bl/6 mice, ISO with or without AC5 inhibitors or metoprolol were chronically infused with an osmotic mini-pump at the indicated doses for 1 week. Mice were then subjected to echocardiography (a) and heart tissue were subjected to a myocardial apoptosis assay (b). *, p<0.01 vs vehicle. #, p<0.05 vs vehicle. .dagger., p<0.01 vs ISO. .dagger-dbl., p<0.05 vs ISO. n=4-15. […] Comparisons between multiple groups were made using ANOVA with post-hoc tests.
as §1, with “described. […]” for “described.”

[9] = tested on: mice, chronic ISO infusion; experiment: Treadmill exercise tolerance after chronic ISO; type: in vivo, mouse
Experimental: Treadmill exercise tolerance was performed as previously described. One week after pump implantation, pumps were removed under anesthesia. The next day after removal, mice were placed on a custom-built four-lane treadmill with an infrared detection system above the shock stimulus at a starting speed of 2 m/min. Every two minutes, the speed was increased by 4 m/min for 16 min or until the mouse could no longer run.

cardiac myocytes = experiment: ISO-induced apoptosis in cultured cardiac myocytes (DNA fragmentation ELISA); type: cell-based; conditions: 100 μM ISO, 48 h
Experimental: Cultured cardiac myocytes were incubated with 100 μM ISO in the presence or absence of AC5 inhibitors at the indicated concentrations for 48 h.

Water solubility = type: physicochemical
[10] = 30 min CAO, 24 hr CAR, vehicle 36%

**Q.** With `Nc1ncnc2c1ncn2[C@@H]1O[C@H](CO)[C@@H](O)[C@@H]1O` [Ara-Ade, 9-β-D-arabinofuranosyladenine] as the compound, how does the “difference in LVEF between vehicle and Ara-Ade in WT” value (AC5 [1]; 0.05 μg/kg IV ISO, WT) read?
**A.** Its value is “no significant difference”.

**Q.** What about the “LVEF after ISO vs vehicle” value (AC5 [1]; Ara-Ade 20 mg/kg/day chronically infused, 0.25 μg/kg IV ISO) of the same compound?
**A.** Its value is “lower”.

**Q.** And the “LVEF elevation by milrinone, vehicle vs Ara-Ade group” value (AC5 [1]; milrinone infusion)?
**A.** The value was “no significant difference”.

**Q.** And the “decrease in HR by carbachol” value (AC5 [1]; vehicle vs Ara-Ade)?
**A.** Its value is “greater in vehicle than Ara-Ade”.

**Q.** And the “difference in LVEF between vehicle and Ara-Ade in AC5Tg” value (AC5 [2])?
**A.** The value was “significant”.

**Q.** What about the “inhibition of cAMP production, heart membrane preparation from AC6Tg” value (AC6) of the same compound?
**A.** Its value is “little inhibitory effect”.

**Q.** And the “arterial pressure and heart rate” value [3]?
**A.** The value was “did not reduce arterial pressure and reflexly increase heart rate”.

**Q.** And the “infarct size, drug administered before CAO or CAR” value [3, 10]?
**A.** The value was 21%.

**Q.** What about the “infarct size, drug delivered at CAR” value [3, 10] of the same compound?
**A.** Its value is 16%.

**Q.** And the “development of heart failure after ischemia and reperfusion” value ([3]; i.v. infusion after CAO, during or after reperfusion)?
**A.** Its value is “prevented development of heart failure”.

**Q.** And the “BBB-permeability (concluded from motor tests)” value [4]?
**A.** The value was “little BBB-permeability”.

**Q.** And the “mode of inhibition with respect to ATP” value (type 5 AC)?
**A.** The value was “non-competitive; also recorded: un-competitive or non-competitive”.

**Q.** What about the Cmax [5] of the same compound?
**A.** Its Cmax is about 10 µM.

**Q.** What about the Cmax ([6]; 10 mg/kg, intravenously infusion for 30 min, read-out: Cmax in human) of the same compound?
**A.** The Cmax was 4.8 µM.

**Q.** What about the Cmax ([6]; human, intravenous infusion 10 mg/kg, read-out: plasma Cmax) of the same compound?
**A.** The Cmax was 4.8 µM.

**Q.** What about the “infarct size in chronically instrumented conscious pigs” value ([7]; delivered after CAR) of the same compound?
**A.** Its value is “reduced infarct size”.

**Q.** And the “reactive hyperemia in pigs” value ([7]; pig, in vivo)?
**A.** The value was “inhibited reactive hyperemia”.

**Q.** What about the “inhibition of cAMP accumulation in H9C2 cells” value (H9C2 cells) of the same compound?
**A.** The value was “slight inhibition”.

**Q.** And the “inhibition of cAMP production, heart membrane preparation from AC5Tg” value (AC5 [8])?
**A.** The value was “inhibited cAMP production”.

**Q.** And the “phosphorylation of Bcl-2” value (ERK/MEK/Bcl-2 pathway)?
**A.** The value was “significantly increased”.

**Q.** And the “phosphorylation of ERK1/2 and MEK” value (ERK/MEK/Bcl-2 pathway)?
**A.** Its value is “increased”.

**Q.** And the “basal LVEF” value (mice)?
**A.** Its value is “did not change LVEF; also recorded: did not affect basal LVEF”.

**Q.** And the “maximum velocity in the treadmill test” value [9]?
**A.** The value was “rescued ISO-induced decrease in the maximum velocity”.

**Q.** And the “ISO-induced apoptosis in cultured cardiac myocytes” value (cardiac myocytes)?
**A.** Its value is “completely abolished”.

**Q.** And the “effective concentration in inhibiting apoptosis” value (cardiac myocytes; FIG. 3d)?
**A.** The value was 10 µM.

**Q.** What about the water solubility (Water solubility) of the same compound?
**A.** The water solubility was “poorly water-soluble”.
